Data as given in PMC11915801, “Evolutionary trajectory of bacterial resistance to antibiotics and antimicrobial peptides in Escherichia coli” (mSystems, 2025).
In brackets after ≈: the same amount, converted by molar mass. Read-outs that look alike come from different tables or passages of the source.

Key:
Test in all cases: microbe, parasite or virus in culture
Assay type in all cases: cell-based, Escherichia coli
E. coli K-12 MG1655 = details: for MIC: Escherichia coli
Procedure: (§1) The broth microdilution method was used to measure the MIC values of antibiotics and peptides according to the Clinical and Laboratory Standards Institute guidelines. The MIC value is defined as the lowest drug concentration without visible bacteria.
Eight antibiotics and ten AMPs at the sub-inhibitory concentration were prepared. A 300-µL system, including 260 µL of MH broth, 30 µL of prepared drug, and 10 µL of bacterial culture, was used for resistance passages. After 12 h of incubation at 37℃ and 200 rpm, 10 µL of the above bacterial culture was added into the new sterile drug-containing broth. MIC values of bacterial culture were determined. The drug concentration was adjusted according to the MIC value change until the end of the 120 passages.

AMP120 (evolved MG1655) = details: broth microdilution, ampicillin-evolved strain; for MIC: Escherichia coli, MG1655
Excerpt: (§2) To ensure the stable resistance evolution and inheritance of MG1655 under different drugs, we randomly selected three monoclonals from the evolved strains. The final antibiotic-evolved strains were designated as AMP120, AZI120, CHL80, CIP120, DOX120, KAN80, NIT70, and TMP30, while the final AMP-evolved strains were named COL120, Ind120, Omi120, Pex120, PGLA120, Pleu120, R8120, SAAP120, LI120, and SLAP120.
as §1

AZI120 (evolved MG1655) = details: broth microdilution, azithromycin-evolved strain; for MIC: Escherichia coli, MG1655
Excerpt: as §2, §1

CHL80 (evolved MG1655) = details: broth microdilution, chloramphenicol-evolved strain; for MIC: Escherichia coli, MG1655
Excerpt: as §2, §1

CIP120 (evolved MG1655) = details: broth microdilution, ciprofloxacin-evolved strain; for MIC: Escherichia coli
Excerpt: as §2, §1

COL120 (evolved MG1655) = details: for MIC: Escherichia coli, MG1655
Excerpt: as §2, §1

DOX120 (evolved MG1655) = details: broth microdilution, doxycycline-evolved strain; for MIC: Escherichia coli, MG1655
Excerpt: as §2, §1

KAN80 (evolved MG1655) = details: broth microdilution, kanamycin-evolved strain; for MIC: Escherichia coli, MG1655
Excerpt: as §2, §1

NIT70 (evolved MG1655) = details: broth microdilution, nitrofurantoin-evolved strain; for MIC: Escherichia coli, MG1655
Excerpt: as §2, §1

TMP30 (evolved MG1655) = details: broth microdilution, trimethoprim-evolved strain; for MIC: Escherichia coli, MG1655
Excerpt: as §2, §1

[1] = broth microdilution, colistin-evolved strain
[2] = MG1655, 12 h, read-out: MIC of MG1655 under the pressure of the same drug, generation 10
[3] = MG1655, read-out: MIC of MG1655 under the pressure of the same drug, generation primary
[4] = MG1655, as E2, generation 20, read-out: MIC of MG1655 under the pressure of the same drug, generation 20
[5] = MG1655, as E2, generation 30, read-out: MIC of MG1655 under the pressure of the same drug, generation 30
[6] = MG1655, as E2, generation 40, read-out: MIC of MG1655 under the pressure of the same drug, generation 40
[7] = MG1655, as E2, generation 50, read-out: MIC of MG1655 under the pressure of the same drug, generation 50
[8] = MG1655, as E2, generation 60, read-out: MIC of MG1655 under the pressure of the same drug, generation 60
[9] = MG1655, as E2, generation 70, read-out: MIC of MG1655 under the pressure of the same drug, generation 70
[10] = MG1655, as E2, generation 80, read-out: MIC of MG1655 under the pressure of the same drug, generation 80
[11] = MG1655, as E2, generation 90, read-out: MIC of MG1655 under the pressure of the same drug, generation 90
[12] = MG1655, as E2, generation 100, read-out: MIC of MG1655 under the pressure of the same drug, generation 100
[13] = MG1655, as E2, generation 110, read-out: MIC of MG1655 under the pressure of the same drug, generation 110
[14] = MG1655, as E2, generation 120, read-out: MIC of MG1655 under the pressure of the same drug, generation 120

Compound	MIC (E. coli K-12 MG1655; [2]) [µg/mL]	MIC (E. coli K-12 MG1655; [3]) [µg/mL]	MIC (E. coli K-12 MG1655; [4]) [µg/mL]	MIC (E. coli K-12 MG1655; [5]) [µg/mL]	MIC (E. coli K-12 MG1655; [6]) [µg/mL]	MIC (E. coli K-12 MG1655; [7]) [µg/mL]	MIC (E. coli K-12 MG1655; [8]) [µg/mL]	MIC (E. coli K-12 MG1655; [9]) [µg/mL]	MIC (E. coli K-12 MG1655; [10]) [µg/mL]	MIC (E. coli K-12 MG1655; [11]) [µg/mL]	MIC (E. coli K-12 MG1655; [12]) [µg/mL]	MIC (E. coli K-12 MG1655; [13]) [µg/mL]	MIC (E. coli K-12 MG1655; [14]) [µg/mL]	MIC (AMP120 (evolved MG1655)) [µg/mL]	MIC (AZI120 (evolved MG1655)) [µg/mL]	MIC (CHL80 (evolved MG1655)) [µg/mL]	MIC (CIP120 (evolved MG1655)) [µg/mL]	MIC (COL120 (evolved MG1655); [1]) [µg/mL]	MIC (DOX120 (evolved MG1655)) [µg/mL]	MIC (KAN80 (evolved MG1655)) [µg/mL]	further results
NC[C@H]1O[C@H](O[C@H]2[C@H](O)[C@@H](O[C@H]3O[C@H](CO)[C@@H](O)[C@H](N)[C@H]3O)[C@H](N)C[C@@H]2N)[C@H](O)[C@@H](O)[C@@H]1O [KAN, Kanamycin]	–	–	–	–	–	–	–	–	–	–	–	–	–	–	–	–	–	–	–	–	increase in MIC values after experimental evolution (E. coli K-12 MG1655; MG1655, sub-inhibitory drug in MH broth over 60 days, final vs primary MIC): 256 fold; MIC of MG1655 under the pressure of the same drug, generation 20 (E. coli K-12 MG1655; as E2, generation 20): 32 µg/mL; MIC of MG1655 under the pressure of the same drug, generation 30 (E. coli K-12 MG1655; as E2, generation 30): 64 µg/mL; MIC of MG1655 under the pressure of the same drug, generation 40 (E. coli K-12 MG1655; as E2, generation 40): 64 µg/mL; MIC of MG1655 under the pressure of the same drug, generation 50 (E. coli K-12 MG1655; as E2, generation 50): 128 µg/mL; MIC of MG1655 under the pressure of the same drug, generation 60 (E. coli K-12 MG1655; as E2, generation 60): 256 µg/mL; MIC of MG1655 under the pressure of the same drug, generation 70 (E. coli K-12 MG1655; as E2, generation 70): 256 µg/mL; MIC of MG1655 under the pressure of the same drug, generation 80 (E. coli K-12 MG1655; as E2, generation 80): 512 µg/mL; MIC of MG1655 under the pressure of the same drug, generation primary (E. coli K-12 MG1655; broth microdilution (CLSI), primary MG1655 before passage): 2 µg/mL; MIC of MG1655 under the pressure of the same drug, generation 10 (E. coli K-12 MG1655; broth microdilution, line passaged in MH broth with sub-inhibitory drug, 12 h per passage, 37℃, generation 10): 16 µg/mL; MIC values of evolved MG1655, strain AMP120 (AMP120 (evolved MG1655)): 1 µg/mL; MIC values of evolved MG1655, strain AZI120 (AZI120 (evolved MG1655)): 4 µg/mL; MIC values of evolved MG1655, strain CHL80 (CHL80 (evolved MG1655)): 2 µg/mL; MIC values of evolved MG1655, strain CIP120 (CIP120 (evolved MG1655)): 4 µg/mL; MIC values of evolved MG1655, strain COL120 (COL120 (evolved MG1655); [1]): 4 µg/mL; MIC values of evolved MG1655, strain DOX120 (DOX120 (evolved MG1655)): 2 µg/mL; MIC values of evolved MG1655, strain KAN80 (KAN80 (evolved MG1655)): 512 µg/mL; MIC values of evolved MG1655, strain NIT70 (NIT70 (evolved MG1655)): 4 µg/mL; MIC values of evolved MG1655, strain TMP30 (TMP30 (evolved MG1655)): 4 µg/mL
CC1(C)S[C@@H]2[C@H](NC(=O)[C@H](N)c3ccccc3)C(=O)N2[C@H]1C(=O)O [AMP, Ampicillin]	8	4	8	8	16	16	16	16	16	32	32	64	64	64 (≈ 183 µM)	2 (≈ 5.72 µM)	64 (≈ 183 µM)	16 (≈ 45.8 µM)	4 (≈ 11.4 µM)	32 (≈ 91.6 µM)	4 (≈ 11.4 µM)	MIC (NIT70 (evolved MG1655)): 4 µg/mL (≈ 11.4 µM); MIC (TMP30 (evolved MG1655)): 4 µg/mL (≈ 11.4 µM)
CC[C@H]1OC(=O)[C@H](C)[C@@H](O[C@H]2C[C@@](C)(OC)[C@@H](O)[C@H](C)O2)[C@H](C)[C@@H](O[C@@H]2O[C@H](C)C[C@H](N(C)C)[C@H]2O)[C@](C)(O)C[C@@H](C)CN(C)[C@H](C)[C@@H](O)[C@]1(C)O [AZI, Azithromycin]	2	2	2	2	2	4	4	4	4	4	4	8	16	1 (≈ 1.34 µM)	16 (≈ 21.4 µM)	2 (≈ 2.67 µM)	4 (≈ 5.34 µM)	0.5 (≈ 0.668 µM)	2 (≈ 2.67 µM)	2 (≈ 2.67 µM)	collateral sensitivity of COL120 (fold change of MIC vs wild-type MG1655) (COL120 (evolved MG1655); MIC of COL120 compared with MG1655): exceeding fourfold; MIC (NIT70 (evolved MG1655)): 4 µg/mL (≈ 5.34 µM); MIC (TMP30 (evolved MG1655)): 16 µg/mL (≈ 21.4 µM)
